Measurements published in patent US9714275B2, “Cancer antigen” (Cadila Pharmaceuticals Ltd., priority 2011, dated 2017).

Columns and labels:
Assay type in all cases: cell-based
B16 melanoma cells = assay: Protein profile (SDS-PAGE) of treated melanoma cells; conditions: cisplatin 5 μg/ml, paclitaxel 150 μg/ml, gemcitabine 800 nm; serum free media, 37° C.; vs untreated cell profile
Experimental: The B16 melanoma cells were treated with, cisplatin at 5 μg/ml, paclitaxel at 150 μg/ml,and gemcitabine at 800 nm. The treatment was carried out in serum free media at 37° C. The cells were lysed and SDS-PAGE was run to obtain proteomic profile. Thus obtained profiles were overlapped with the untreated cell protein profile. The protein profile was noticed for each treatment. The differently expressed protein was identified at 36 KDa.
36 KDa protein is commonly expressed protein when melanoma cells are treated with, cisplatin, paclitaxel, gemcitabine, or combination there of.

Mia-Pa-Ca-2 cells = assay: Protein profile (SDS-PAGE) of treated pancreatic cancer cells; conditions: Mw 1:500, cisplatin 5 μg/ml, paclitaxel 150 μg/ml, gemcitabine 800 nm; serum free media, 37° C.; vs untreated cell profile
Experimental: The Mia-Pa-Ca-2 cells were treated with Mw Cells in ratio 1:500, cisplatin at 5 μg/ml, paclitaxel at 150 μg/ml, and gemcitabine at 800 nm. The treatment was carried out in serum free media at 37° C. The cells were lysed and SDS-PAGE was run to obtain proteomic profile. Thus obtained profiles were overlapped with the untreated cell protein profile. The protein profile was noticed for each treatment. The differently expressed protein was identified at 45 KDa.
45 KDa protein is commonly over expressed protein when pancreatic cancer cells are treated with Mw, cisplatin, paclitaxel, gemcitabine, or combination there of.

[1] = tested on: Lung cancer cell lines (A549 and L132); assay: Protein profile (SDS PAGE and Western blot) of Mw treated lung cancer cell lines; conditions: Mw/cells 1:100, 4 hours at 37° C.; vs untreated cell profile
Experimental: Different Lung cancer cell lines (A549 and L132) were treated with Mw/cells in the ratio of 1:100. Each treatment group contained 4×10E6 cells. Cells treated with Mw were incubated for 4 hours at 37° C. After treatment, cells were pelleted and supernatant was discarded. Cells were then resuspended in DPBS (400 μl). Cells were then sonicated for 15 minutes with pulse of 10 seconds on and 20 seconds off. The lysate obtained was estimated for the protein content using BCA Protein assay and protein was normalized to load 30 μg protein in each well. This was followed by 12% reducing SDS PAGE and Western blot analysis to obtain protein profile and humoral response. Thus obtained profile was compared with untreated cell protein profile.

Molecule | commonly expressed protein after treatment (SDS-PAGE band) (B16 melanoma cells) [KDa] | commonly over expressed protein after treatment (SDS-PAGE band) (Mia-Pa-Ca-2 cells) [KDa] | common protein in both treated cell lines [1] [KDa]
N.N.[Cl][Pt][Cl] [cisplatin] | 36 | 45 | 
Nc1ccn([C@@H]2O[C@H](CO)[C@@H](O)C2(F)F)c(=O)n1 [gemcitabine] | 36 | 45 | 
CC(=O)O[C@H]1C(=O)[C@@]2(C)[C@H]([C@H](OC(=O)c3ccccc3)[C@]3(O)C[C@H](OC(=O)[C@H](O)[C@@H](NC(=O)c4ccccc4)c4ccccc4)C(C)=C1C3(C)C)[C@]1(OC(C)=O)CO[C@@H]1C[C@@H]2O [paclitaxel] | 36 | 45 | 
Mycobacterium w [Mw] |  | 45 | 43
